Measurements taken from publication PMC10191403, “The C-terminal 32-mer fragment of hemoglobin alpha is an amyloidogenic peptide with antimicrobial properties” (Cellular and Molecular Life Sciences: CMLS, 2023).
Ends that are not written are not given here.

Tests used:
HSV-2 = assay type: cell-based; settings: serial dilutions of peptides added to ELVIS cells, infected 1 h later with HSV-2; lacZ enzyme activity one day post-infection; ±SD; one (inactive) to three (active) experiments in triplicates
[1] = Thioflavin T (ThT) assay of fibril formation; assay type: physicochemical; settings: formation of ThT positive aggregates
[2] = system: THP-1-derived macrophages; test: Phagocytosis of E. coli-GFP by THP-1-derived macrophages; assay type: cell-based, human; settings: E. coli-GFP pre-incubated with 1 mg/ml fibrils, 3 h on cells; CytD 2 µg/ml pre-treatment 30 min; confocal microscopy

Compound | IC50 (antiviral activity, HSV-2) (HSV-2) | ThT signal (+/-) [1] | uptake of E. coli-GFP by macrophages [2]
SVSTVL [HBA 132-137] | > 130 µg/mL | - | 
KFLASVST [HBA 128-135] | > 130 µg/mL | - | 
ASVSTVL [HBA 131-137] | > 130 µg/mL | + | 
LASVSTVL [HBA 130-137] | > 130 µg/mL | + | 
SVSTVLTSKYR [HBA 132-142] | > 130 µg/mL | - | 
C=C1[C@@H](C)[C@H]2[C@H](Cc3ccccc3)NC(=O)[C@]23[C@H](OC(C)=O)/C=C/[C@@](C)(O)C(=O)[C@@H](C)C/C=C/[C@H]3[C@@H]1O [CytD, Cytochalasin D] |  |  | prevented the uptake of any bacteria
AAHLPAEFTPAVHASLDKFLA [HBA(111–131)] | > 130 µg/mL | - | 
